For seven compounds, inhibition and IC50 results are on record in patent US10414769B2, “5,8-dimethyl-9-phenyl-5,8-dihydro-6H-pyrazolo[3,4-h]quinazolin-2-yl)-(1H-pyrazol-3-yl)-amines as IGF-1R/IR inhibitors” (Boehringer Ingelheim International GmbH, priority 2015, dated 2019).

What all share (format): biochemical
The target of one assay is T1, AKT2 (PKB beta) (Homo sapiens, UniProt P31751).
T1 construct: purchased Life Technologies PV3975
Kind of assay: Z'-LYTE kinase selectivity assay AKT2. The text has this:
(§1) In order to compare the kinase selectivity of compounds (I) according to the invention with known prior art compounds the commercially provided SelectScreen® Kinase Profiling Service (Z′-LYTE®) was used (Life Technologies GmbH, Darmstadt, Germany) to investigate the ability of the compounds to inhibit a number of different, representatively selected human kinases. Further details regarding this service are available on the Life Technologies website at
(§2) The Z′-LYTE® biochemical assay employs a fluorescence-based, coupled-enzyme format and is based on the differential sensitivity of phosphorylated and non-phosphorylated peptides to proteolytic cleavage. The peptide substrate is labeled with two fluorophores—one at each end—that make up a FRET pair.
(§3) In the primary reaction, the kinase transfers the gamma-phosphate of ATP to a single tyrosine, serine or threonine residue in a synthetic FRET-peptide. In the secondary reaction, a site-specific protease recognizes and cleaves non-phosphorylated FRET-peptides. Phosphorylation of FRET-peptides suppresses cleavage by the Development Reagent. Cleavage disrupts FRET between the donor (i.e., coumarin) and acceptor (i.e., fluorescein) fluorophores on the FRET-peptide, whereas uncleaved, phosphorylated FRET-peptides maintain FRET. A ratiometric method, which calculates the ratio (the Emission Ratio) of donor emission to acceptor emission after excitation of the donor fluorophore at 400 nm, is used to quantitate reaction progress, as shown in the equation below.
(§4) The Test Compounds are screened at 1 μM.
The 2×AKT2 (PKB beta) (# PV3975)/Ser/Thr 06 (Z′-LYTE® Kinase Assay Kit—Ser/Thr 6 Peptide, # PV 3179) mixture is prepared in 50 mM HEPES pH 7.5, 0.01% BRIJ-35, 10 mM MgCl2, 1 mM EGTA. The final 10 μL Kinase Reaction consists of 0.78-40 ng AKT2 (PKB beta) and 2 μM Ser/Thr 06 in 50 mM HEPES pH 7.5, 0.01% BRIJ-35, 10 mM MgCl2, 1 mM EGTA. After the 1 hour Kinase Reaction incubation, 5 μL of a 1:4096 dilution of Development Reagent A is added.

A further assay deals with T2, AMPK A1/B1/G1 (Homo sapiens, UniProt Q13131).
T2 construct: purchased Life Technologies PV 4672
T2 sequence (Q13131 whole entry): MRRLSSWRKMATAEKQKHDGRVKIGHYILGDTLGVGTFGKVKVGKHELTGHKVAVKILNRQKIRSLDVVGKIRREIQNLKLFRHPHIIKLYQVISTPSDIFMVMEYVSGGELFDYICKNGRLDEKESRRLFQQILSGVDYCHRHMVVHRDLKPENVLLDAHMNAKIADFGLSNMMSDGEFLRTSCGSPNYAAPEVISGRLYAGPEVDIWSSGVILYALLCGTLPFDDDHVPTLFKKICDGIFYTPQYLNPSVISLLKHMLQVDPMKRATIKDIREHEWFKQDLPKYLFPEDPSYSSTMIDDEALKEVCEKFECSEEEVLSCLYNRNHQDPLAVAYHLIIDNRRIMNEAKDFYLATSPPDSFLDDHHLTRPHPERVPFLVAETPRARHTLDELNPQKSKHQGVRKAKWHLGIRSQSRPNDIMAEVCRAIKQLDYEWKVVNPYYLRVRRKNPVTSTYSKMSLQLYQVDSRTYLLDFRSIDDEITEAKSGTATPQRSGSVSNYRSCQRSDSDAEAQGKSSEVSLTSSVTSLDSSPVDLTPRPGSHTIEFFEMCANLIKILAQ
T2 sequence (Q9Y478 whole entry partner): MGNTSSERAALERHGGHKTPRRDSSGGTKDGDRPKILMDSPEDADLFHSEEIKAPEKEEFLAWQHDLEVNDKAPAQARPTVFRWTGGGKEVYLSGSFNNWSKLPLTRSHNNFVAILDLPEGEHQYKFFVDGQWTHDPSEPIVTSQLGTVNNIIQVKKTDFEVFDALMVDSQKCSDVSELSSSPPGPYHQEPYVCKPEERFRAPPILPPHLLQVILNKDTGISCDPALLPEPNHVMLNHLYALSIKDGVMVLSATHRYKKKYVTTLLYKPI
T2 sequence (P54619 whole entry partner): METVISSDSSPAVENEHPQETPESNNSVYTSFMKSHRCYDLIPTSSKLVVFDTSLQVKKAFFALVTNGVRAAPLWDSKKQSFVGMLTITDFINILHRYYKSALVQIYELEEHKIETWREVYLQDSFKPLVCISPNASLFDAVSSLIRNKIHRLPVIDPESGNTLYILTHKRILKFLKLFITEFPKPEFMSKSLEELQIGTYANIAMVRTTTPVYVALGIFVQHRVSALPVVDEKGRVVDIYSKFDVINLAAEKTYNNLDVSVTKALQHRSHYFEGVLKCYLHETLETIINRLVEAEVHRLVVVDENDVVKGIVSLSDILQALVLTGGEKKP
Kind of assay: Z'-LYTE kinase selectivity assay AMPK A1/B1/G1. The following applies: read-out: AMPK A1B1G1 % inhibition.
Source text: as §1, §2, §3, §4
The 2×AMPK A1/B1/G1 (# PV 4672)/Ser/Thr 23 (Z′-LYTE® Kinase Assay Kit—Ser/Thr 23 Peptide, # PV 4644) mixture is prepared in 50 mM HEPES pH 7.5, 0.01% BRIJ-35, 10 mM MgCl2, 1 mM EGTA. The final 10 μL Kinase Reaction consists of 0.43-2.86 ng AMPK A1/B1/G1 and 2 μM Ser/Thr 23 in 50 mM HEPES pH 7.5, 0.01% BRIJ-35, 10 mM MgCl2, 1 mM EGTA. After the 1 hour Kinase Reaction incubation, 5 μL of a 1:4096 dilution of Development Reagent A is added.

The next assay addresses T3, human IGF-1R (Homo sapiens, UniProt P08069).
T3 construct: human IGF-1R (amino acids 964-1370) is expressed as a fusion protein; made in house; host or cells: High Five insect cells (Invitrogen)
Kind of assay: Insulin-like growth factor-1 receptor (IGF-1R)-kinase assay (DELFIA). Conditions: inhibition of IGF-1R-kinase activity. The protocol: Insulin-Like Growth Factor-1 Receptor (IGF-1R)-Kinase Assay
The kinase activity is measured by DELFIA® assay (dissociation-enhanced lanthanide fluorescence immunoassay, Perkin Elmer). The cytoplasmic kinase domain of human IGF-1R (amino acids 964-1370) is expressed as a fusion protein with a glutathione-S-transferase tag (IGF-1R-GST) in High Five™ Cells (Invitrogen). Enzyme activity is measured in the presence of substances and a control substance. Poly-glutamate-tyrosine peptide (pEY, Sigma Aldrich) and biotinylated pEY (bio-pEY) are used as reaction substrates.
10 μL of substance in 25% DMSO are mixed with 30 μL of IGF-1R-GST solution (67 mM HEPES pH 7.4, 15 μg/mL pEY, 1.7 μg/mL bio-pEY, 13.3 mM MgCl2, 3.3 mM dithiothreitol, 0.0033% Brij 35, 2 ng IGF-1R-GST) in 96-well plates. The reactions are started with 10 μL of a 750 μM ATP solution. After 40 min at RT the reactions are stopped with 50 μL of stop solution (250 mM EDTA, 20 mM HEPES pH 7.4). 90 μL from each reaction are transferred onto streptavidin-coated 96-well plates. After 120 min incubation at RT the plates are washed three times with 200 μL phosphate-buffered saline (PBS) per well. The plates are incubated for 60 min with 100 μL of europium-coupled antibody against phospho-tyrosine (diluted 1/2000 in Perkin Elmer DELFIA assay buffer) per well. The plates are washed three times with 200 μL per well of DELFIA washing buffer (Perkin Elmer). 100 μL DELFIA Enhancement Solution (Perkin Elmer) is added to each well, and the plates are incubated for 10 min. The fluorescence signal is measured with a Wallac Victor TRF Reader. IC50 values for the inhibition of the IGF-1R-kinase activity are calculated using the programme GraphPad (Version 3.0).

In the next assay the target is T4, CSNK1A1 (CK1 alpha 1) (Homo sapiens, UniProt P48729).
T4 construct: purchased Life Technologies PV 3850
T4 sequence (P48729 whole entry): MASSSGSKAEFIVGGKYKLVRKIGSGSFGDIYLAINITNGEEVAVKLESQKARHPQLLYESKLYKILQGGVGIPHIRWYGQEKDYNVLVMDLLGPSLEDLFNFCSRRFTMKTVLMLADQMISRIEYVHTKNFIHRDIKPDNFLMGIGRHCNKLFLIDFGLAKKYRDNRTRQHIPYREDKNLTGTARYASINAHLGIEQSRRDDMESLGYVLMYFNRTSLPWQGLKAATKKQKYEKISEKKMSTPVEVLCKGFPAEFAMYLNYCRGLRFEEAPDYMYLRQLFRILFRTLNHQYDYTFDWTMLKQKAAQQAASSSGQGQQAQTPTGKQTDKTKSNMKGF
Kind of assay: Z'-LYTE kinase selectivity assay CSNK1A1.
Source text: as §1, §2, §3, §4
The 2×CSNK1A1 (CK1 alpha 1) (# PV 3850)/Ser/Thr 11 (Z′-LYTE® Kinase Assay Kit—Ser/Thr 11 Peptide, # PV 3670) mixture is prepared in 50 mM HEPES pH 7.5, 0.01% BRIJ-35, 10 mM MgCl2, 1 mM EGTA, 2 mM DTT. The final 10 μL Kinase Reaction consists of 2.6-13.5 ng CSNK1A1 (CK1 alpha 1) and 2 μM Ser/Thr 11 in 50 mM HEPES pH 7.5, 0.01% BRIJ-35, 10 mM MgCl2, 1 mM EGTA, 1 mM DTT. After the 1 hour Kinase Reaction incubation, 5 μL of a 1:16 dilution of Development Reagent B is added.

T3 sequence (P08069 964-1367 limits assumed): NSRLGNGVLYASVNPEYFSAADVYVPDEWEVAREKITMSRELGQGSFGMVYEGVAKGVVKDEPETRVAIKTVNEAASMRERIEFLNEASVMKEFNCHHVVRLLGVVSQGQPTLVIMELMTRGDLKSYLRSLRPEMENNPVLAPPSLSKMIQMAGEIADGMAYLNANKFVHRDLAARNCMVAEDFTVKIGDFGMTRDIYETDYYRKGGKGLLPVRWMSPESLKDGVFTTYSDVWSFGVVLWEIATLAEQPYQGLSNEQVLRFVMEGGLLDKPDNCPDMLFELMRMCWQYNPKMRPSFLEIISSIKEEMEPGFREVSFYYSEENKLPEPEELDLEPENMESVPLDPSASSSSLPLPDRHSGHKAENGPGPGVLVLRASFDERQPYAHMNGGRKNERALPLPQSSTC
T1 sequence (P31751 whole entry): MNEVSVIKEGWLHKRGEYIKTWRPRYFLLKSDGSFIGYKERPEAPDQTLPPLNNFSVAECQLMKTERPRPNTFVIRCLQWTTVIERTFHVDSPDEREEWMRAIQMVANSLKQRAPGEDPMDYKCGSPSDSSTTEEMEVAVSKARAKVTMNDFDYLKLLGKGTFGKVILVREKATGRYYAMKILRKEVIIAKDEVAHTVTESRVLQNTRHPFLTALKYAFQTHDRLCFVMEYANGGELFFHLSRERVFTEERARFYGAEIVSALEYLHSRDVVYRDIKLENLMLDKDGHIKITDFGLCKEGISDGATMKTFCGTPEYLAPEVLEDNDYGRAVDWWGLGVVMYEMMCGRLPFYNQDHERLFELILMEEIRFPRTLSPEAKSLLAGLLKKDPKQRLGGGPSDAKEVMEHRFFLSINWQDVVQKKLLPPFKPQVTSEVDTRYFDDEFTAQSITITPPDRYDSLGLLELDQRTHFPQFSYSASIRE

For the compound `C[C@@H]1Cc2nn(C)c(-c3ccccc3)c2-c2nc(Nc3ccn(CCN4CCOCC4)n3)ncc21` [Compound I-2], the inhibition (in general, the percentage by which the read-out fell short of the control) at 1 µM came to 1% against AKT2 (PKB beta), 34% at AMPK A1/B1/G1 and 49% at CSNK1A1 (CK1 alpha 1). Moreover, on human IGF-1R, the IC50 (as a rule, the point on the concentration scale where inhibition reaches its midpoint) is 1.3 nM.

As to `CC(O)CN1CCN(CCn2ccc(Nc3ncc4c(n3)-c3c(nn(C)c3-c3ccccc3)C[C@H]4C)n2)CC1` (stereo partly shown) [Compound I-7], the inhibition at 1 µM at AKT2 (PKB beta) is 7%; on AMPK A1/B1/G1 it was 39%; against CSNK1A1 (CK1 alpha 1), 29%. This compound returned an IC50 against human IGF-1R of 1 nM.

As for `COCCN1CCN(CCn2ccc(Nc3ncc4c(n3)-c3c(nn(C)c3-c3ccccc3)C[C@H]4C)n2)CC1` [Compound I-11], the inhibition at 1 µM stood at 3% at AKT2 (PKB beta), 28% on AMPK A1/B1/G1 and 17% on CSNK1A1 (CK1 alpha 1). In addition, at human IGF-1R, the IC50 is 0.9 nM.

With `C[C@@H]1Cc2nn(C)c(-c3ccccc3)c2-c2nc(Nc3ccn(CCN4CCN(CC5CCCO5)CC4)n3)ncc21` (stereo partly shown) [Compound I-9], the values for the inhibition at 1 µM at AKT2 (PKB beta), on AMPK A1/B1/G1 and against CSNK1A1 (CK1 alpha 1) were 2%, 35% and 37%, respectively. For the same compound, it took 1.2 nM to reach half-maximal inhibition against human IGF-1R (IC50).

Consider `C[C@@H]1Cc2nn(C)c(-c3ccccc3)c2-c2nc(Nc3ccn(CCN4CCN(CC(=O)OC5CCOCC5)CC4)n3)ncc21` [Compound I-8], for which the inhibition at 1 µM was found to be 4% on AKT2 (PKB beta), 29% at AMPK A1/B1/G1 and 38% at CSNK1A1 (CK1 alpha 1). The IC50 at human IGF-1R was determined as 2.8 nM.

With `C[C@@H]1Cc2nn(C)c(-c3ccccc3)c2-c2nc(Nc3ccn(CCN4CCN(C)CC4)n3)ncc21` [Compound I-1], the inhibition at 1 µM against AKT2 (PKB beta) amounted to 3%; at AMPK A1/B1/G1, 36%; on CSNK1A1 (CK1 alpha 1) it was 16%. On human IGF-1R, this compound registered a half-maximal inhibitory concentration (IC50) of 0.9 nM.

As to `C[C@@H]1Cc2nn(C)c(-c3ccccc3)c2-c2nc(Nc3ccn(CCN4CCN(CC(C)(C)O)CC4)n3)ncc21` [Compound I-3], the inhibition at 1 µM at AKT2 (PKB beta) stood at 7%; at AMPK A1/B1/G1 it was 43%; on CSNK1A1 (CK1 alpha 1), 37%. On human IGF-1R, this compound registered an IC50 of 1.9 nM.
